In patent US20240360178A1, “MACROCYCLIC IMMUNOMODULATORS” (Bristol-Myers Squibb Company, priority 2021, published 2024):
Positions of bridges follow the written chain, without caps; N, C: chain ends. Non-standard residues stand in square brackets, D forms with d. Residues, ends and D or L forms follow the SMILES beside them. ξ: configuration not given here. *: point of attachment. Phe(4-CONH2) = NC(=O)c1ccc(C[C@H](N)C(=O)O)cc1; Phe(4-CH2NH2) = NCc1ccc(C[C@H](N)C(=O)O)cc1; Ala(4-thiazolyl) = N[C@@H](Cc1cscn1)C(=O)O; Bip = N[C@@H](Cc1ccc(-c2ccccc2)cc1)C(=O)O; Phe(3-OMe) = COc1cccc(C[C@H](N)C(=O)O)c1; Phe(3-Me) = Cc1cccc(C[C@H](N)C(=O)O)c1; NMeF = CN[C@@H](Cc1ccccc1)C(=O)O; 4Pal = N[C@@H](Cc1ccncc1)C(=O)O; Aad = N[C@@H](CCCC(=O)O)C(=O)O; Cha = N[C@@H](CC1CCCCC1)C(=O)O; Cit = NC(=O)NCCC[C@H](N)C(=O)O; hSer = N[C@@H](CCO)C(=O)O; ξR = N=C(N)NCCCC(N)C(=O)O; Carboxymethyl = O=C(O)C*; NMeA = CN[C@@H](C)C(=O)O; Nle = CCCC[C@H](N)C(=O)O; Orn = NCCC[C@H](N)C(=O)O; Dab = NCC[C@H](N)C(=O)O; Dap = NC[C@H](N)C(=O)O; ξV = CC(C)C(N)C(=O)O; Sar = CNCC(=O)O

Target: T1, human PD-1 (Jurkat-PD-1 cells) / PE-labeled human PD-L1-Ig (Homo sapiens, UniProt Q15116)
T1 construct: expressed in transfected cells; host or cells: Jurkat cell line over-expressing human PD-1
Experiment: Jurkat-PD-1 Cell Binding High-Content Screening Assay (CBA); Jurkat hPD1-PDL1 assay
Conditions: Jurkat cell line over-expressing human PD-1; PE-labeled PD-L1-Ig 20 nM final; compound incubated 2 hours at 37° C.; read-out: Jurkat HPD1-PDL1 IC50
Outline: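 Binding of phycoerythrin-conjugated PD-L1-Ig (20 nM final) to PD-1-overexpressing Jurkat cells was read by high-content imaging. Cells in DMEM/10% FCS were exposed to compound for 2 hours at 37° C before labeled ligand was added.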

T1 sequence (Q15116 25-288): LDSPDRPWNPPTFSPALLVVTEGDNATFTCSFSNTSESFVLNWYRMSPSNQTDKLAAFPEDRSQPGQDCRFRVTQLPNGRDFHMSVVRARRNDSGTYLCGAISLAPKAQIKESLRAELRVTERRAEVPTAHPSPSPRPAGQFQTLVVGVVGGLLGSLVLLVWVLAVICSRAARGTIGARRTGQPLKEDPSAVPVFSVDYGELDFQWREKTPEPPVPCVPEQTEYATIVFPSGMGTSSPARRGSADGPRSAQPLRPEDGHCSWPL

| Structure (SMILES) | IC50 |
| --- | --- |
| CC(C)C[C@@H]1NC(=O)[C@H](C)NC(=O)[C@H](Cc2ccccc2)N(C)C(=O)[C@H](C)N(C)C(=O)[C@H](CCCNC(=N)N)NC(=O)[C@H](Cc2ccc(-c3ccccc3)cc2)NC(=O)[C@H](C(C)C)NC(=O)[C@H](Cc2c[nH]c3ccccc23)NC(=O)[C@H](CC(=O)O)NC(=O)[C@H](Cc2ccc(O)cc2)NC(=O)[C@H](Cc2ccccc2)NC(=O)CSC[C@@H](C(=O)NCC(N)=O)NC(=O)[C@H](CO)NC(=O)[C@H](C(C)C)NC1=O [Example 1209] ({CH2CO}-FYDWV[Bip]R[NMeA][NMeF]ALVSCG-NH2; thioether N-14) | 780 nM |
| CC(C)C[C@@H]1NC(=O)[C@H](Cc2c[nH]c3ccccc23)NC(=O)[C@H](CC(=O)O)NC(=O)[C@H](Cc2ccc(O)cc2)NC(=O)[C@H](Cc2ccccc2)NC(=O)CSC[C@@H](C(=O)NCC(N)=O)NC(=O)[C@H](CO)NC(=O)[C@H](C(C)C)NC(=O)[C@H](CC(C)C)NC(=O)[C@H](CCCN)NC(=O)CN(C)C(=O)[C@H](C)N(C)C(=O)[C@H](C(C)C)NC(=O)[C@H](Cc2ccc(-c3ccccc3)cc2)NC1=O [Example 1079] ({CH2CO}-FYDWL[Bip]V[NMeA][Sar][Orn]LVSCG-NH2; thioether N-14) | 220 nM |
| CC(C)C[C@@H]1NC(=O)[C@H](Cc2ccccc2)NC(=O)[C@H](CC(=O)O)NC(=O)[C@H](Cc2ccc(O)cc2)NC(=O)[C@H](Cc2ccccc2)NC(=O)CSC[C@@H](C(=O)NCC(N)=O)NC(=O)[C@H](CO)NC(=O)[C@H](C(C)C)NC(=O)[C@H](CC(C)C)NC(=O)[C@H](CC(N)=O)NC(=O)CN(C)C(=O)[C@H](C)N(C)C(=O)[C@H](C(C)C)NC(=O)[C@H](Cc2ccc(-c3ccccc3)cc2)NC1=O [Example 1088] ({CH2CO}-FYDFL[Bip]V[NMeA][Sar]NLVSCG-NH2; thioether N-14) | 250 nM |
| CC(C)C[C@@H]1NC(=O)[C@H](Cc2c[nH]c3ccccc23)NC(=O)[C@H](CC(=O)O)NC(=O)[C@H](Cc2ccc(O)cc2)NC(=O)[C@H](Cc2ccccc2)NC(=O)CSC[C@@H](C(=O)NCC(N)=O)NC(=O)[C@H]([C@@H](C)O)NC(=O)[C@H](C(C)C)NC(=O)[C@H](CC(C)C)NC(=O)[C@H](CC(N)=O)NC(=O)[C@H]2CCCN2C(=O)[C@H](CN)NC(=O)[C@H](C(C)C)NC(=O)[C@H](Cc2ccc(-c3ccccc3)cc2)NC1=O [Example 1404] ({CH2CO}-FYDWL[Bip]V[Dap][dP]NLVTCG-NH2; thioether N-14) | 390 nM |
| CC(C)C[C@@H]1NC(=O)[C@H](Cc2c[nH]c3ccccc23)NC(=O)[C@H](CC(=O)O)NC(=O)[C@H](Cc2ccc(O)cc2)NC(=O)[C@H](Cc2cscn2)NC(=O)CSC[C@@H](C(=O)NCC(N)=O)NC(=O)[C@H](CO)NC(=O)[C@H](C(C)C)NC(=O)[C@H](CC(C)C)NC(=O)[C@H](CC(N)=O)NC(=O)CN(C)C(=O)[C@H](C)N(C)C(=O)[C@H](C(C)C)NC(=O)[C@H](Cc2ccc(-c3ccccc3)cc2)NC1=O [Example 1132] ({CH2CO}-[Ala(4-thiazolyl)]YDWL[Bip]V[NMeA][Sar]NLVSCG-NH2; thioether N-14) | 530 nM |
| CC(C)C[C@@H]1NC(=O)[C@H](CCCNC(=N)N)NC(=O)[C@H](Cc2ccccc2)N(C)C(=O)[C@H](C)N(C)C(=O)[C@H](CCCNC(=N)N)NC(=O)[C@H](Cc2ccc(-c3ccccc3)cc2)NC(=O)[C@H](C(C)C)NC(=O)[C@H](Cc2c[nH]c3ccccc23)NC(=O)[C@H](CC(=O)O)NC(=O)[C@H](Cc2ccc(CN)cc2)NC(=O)[C@H](Cc2ccccc2)NC(=O)CSC[C@@H](C(=O)NCC(N)=O)NC(=O)[C@H](CO)NC(=O)[C@H](C(C)C)NC1=O [Example 1277] ({CH2CO}-F[Phe(4-CH2NH2)]DWV[Bip]R[NMeA][NMeF]RLVSCG-NH2; thioether N-14) | 140 nM |
| CC(C)C[C@@H]1NC(=O)C(CCCNC(=N)N)NC(=O)[C@H](Cc2ccccc2)N(C)C(=O)[C@H](CCC(=O)O)NC(=O)[C@H](CCCNC(=N)N)NC(=O)[C@H](Cc2ccc(-c3ccccc3)cc2)NC(=O)[C@H](C(C)C)NC(=O)[C@H](Cc2c[nH]c3ccccc23)NC(=O)[C@H](CC(=O)O)NC(=O)[C@H](Cc2ccc(O)cc2)NC(=O)[C@H](Cc2ccccc2)NC(=O)CSC[C@@H](C(=O)NCC(N)=O)NC(=O)[C@H](CO)NC(=O)[C@H](C(C)C)NC1=O (stereo partly shown) [Example 1223] ({CH2CO}-FYDWV[Bip]RE[NMeF][ξR]LVSCG-NH2; thioether N-14) | 990 nM |
| CC(C)C[C@@H]1NC(=O)[C@H](CCN)NC(=O)[C@H](Cc2ccccc2)N(C)C(=O)[C@H](C)N(C)C(=O)[C@H](CCCNC(=N)N)NC(=O)[C@H](Cc2ccc(-c3ccccc3)cc2)NC(=O)[C@H](C(C)C)NC(=O)[C@H](Cc2c[nH]c3ccccc23)NC(=O)[C@H](CC(=O)O)NC(=O)[C@H](Cc2ccc(O)cc2)NC(=O)[C@H](Cc2cnc[nH]2)NC(=O)CSC[C@@H](C(=O)N[C@@H](C)C(N)=O)NC(=O)[C@H]([C@@H](C)O)NC(=O)[C@H](C(C)C)NC1=O [Example 1321] ({CH2CO}-HYDWV[Bip]R[NMeA][NMeF][Dab]LVTCA-NH2; thioether N-14) | 110 nM |
| CC(C)C[C@@H]1NC(=O)[C@H](Cc2c[nH]c3ccccc23)NC(=O)[C@H](CC(=O)O)NC(=O)[C@H](Cc2ccc(O)cc2)NC(=O)[C@H](Cc2ccccc2)NC(=O)CSC[C@@H](C(=O)N[C@@H](C)C(N)=O)NC(=O)[C@H](CCO)NC(=O)[C@H](C(C)C)NC(=O)[C@H](CC(C)C)NC(=O)[C@H](CC(N)=O)NC(=O)CN(C)C(=O)[C@H](C)N(C)C(=O)[C@H](C(C)C)NC(=O)[C@H](Cc2ccc(-c3ccccc3)cc2)NC1=O [Example 1159] ({CH2CO}-FYDWL[Bip]V[NMeA][Sar]NLV[hSer]CA-NH2; thioether N-14) | 860 nM |
| CC(C)C[C@@H]1NC(=O)[C@H](Cc2c[nH]c3ccccc23)NC(=O)[C@H](CC(=O)O)NC(=O)[C@H](Cc2ccc(O)cc2)NC(=O)[C@H](Cc2ccc(C(N)=O)cc2)NC(=O)CSC[C@@H](C(=O)NCC(N)=O)NC(=O)[C@H](CO)NC(=O)[C@H](C(C)C)NC(=O)[C@H](CC(C)C)NC(=O)[C@H](CC(N)=O)NC(=O)CN(C)C(=O)[C@H](C)N(C)C(=O)[C@H](C(C)C)NC(=O)[C@H](Cc2ccc(-c3ccccc3)cc2)NC1=O [Example 1174] ({CH2CO}-[Phe(4-CONH2)]YDWL[Bip]V[NMeA][Sar]NLVSCG-NH2; thioether N-14) | 970 nM |
| CCCC[C@@H]1NC(=O)[C@H](C(C)C)NC(=O)[C@H](Cc2ccccc2)N(C)C(=O)[C@H](CC(=O)O)NC(=O)[C@H](CCC(=O)O)NC(=O)[C@H](Cc2ccc(-c3ccccc3)cc2)NC(=O)[C@H](C(C)C)NC(=O)[C@H](Cc2c[nH]c3ccccc23)NC(=O)[C@H](CC(=O)O)NC(=O)[C@H](Cc2ccc(O)cc2)NC(=O)[C@H](Cc2ccccc2)NC(=O)CSC[C@@H](C(=O)NCC(N)=O)NC(=O)[C@H](CCCNC(=N)N)NC(=O)[C@H](C(C)C)NC1=O [Example 1191] ({CH2CO}-FYDWV[Bip]ED[NMeF]V[Nle]VRCG-NH2; thioether N-14) | 690 nM |
| COc1cccc(C[C@@H]2NC(=O)[C@H](CC(=O)O)NC(=O)[C@H](Cc3ccc(O)cc3)NC(=O)[C@H](CC(N)=O)NC(=O)CSC[C@@H](C(=O)N[C@@H](C)C(N)=O)NC(=O)[C@H]([C@@H](C)O)NC(=O)[C@H](C(C)C)NC(=O)[C@H](CC(C)C)NC(=O)[C@H](CCN)NC(=O)[C@H](Cc3ccccc3)N(C)C(=O)[C@H](C)N(C)C(=O)[C@H](CCCNC(N)=O)NC(=O)[C@H](Cc3ccc(-c4ccccc4)cc3)NC(=O)[C@H](C(C)C)NC2=O)c1 [Example 1375] ({CH2CO}-NYD[Phe(3-OMe)]V[Bip][Cit][NMeA][NMeF][Dab]LVTCA-NH2; thioether N-14) | 80 nM |
| CC(C)C[C@@H]1NC(=O)[C@H](Cc2c[nH]c3ccccc23)NC(=O)[C@H](CC(=O)O)NC(=O)[C@H](Cc2ccc(O)cc2)NC(=O)[C@H](Cc2ccccc2)NC(=O)CSC[C@@H](C(=O)N[C@@H](C)C(N)=O)NC(=O)[C@H]([C@@H](C)O)NC(=O)[C@H](C(C)C)NC(=O)[C@H](CC(C)C)NC(=O)[C@H](CC(N)=O)NC(=O)[C@H]2CCCN2C(=O)[C@H](CCN)NC(=O)[C@H](C(C)C)NC(=O)[C@H](Cc2ccc(-c3ccccc3)cc2)NC1=O [Example 1412] ({CH2CO}-FYDWL[Bip]V[Dab][dP]NLVTCA-NH2; thioether N-14) | 480 nM |
| CC(C)C[C@@H]1NC(=O)[C@H](Cc2c[nH]c3ccccc23)NC(=O)[C@H](CC(=O)O)NC(=O)[C@H](Cc2ccc(O)cc2)NC(=O)[C@H](Cc2ccccc2)NC(=O)CSC[C@@H](C(=O)N[C@@H](C)C(N)=O)NC(=O)[C@H](CO)NC(=O)[C@H](C(C)C)NC(=O)[C@H](CC(C)C)NC(=O)[C@H](CC(N)=O)NC(=O)CN(C)C(=O)[C@H](C)N(C)C(=O)[C@H](CCCC(=O)O)NC(=O)[C@H](Cc2ccc(-c3ccccc3)cc2)NC1=O [Example 1092] ({CH2CO}-FYDWL[Bip][Aad][NMeA][Sar]NLVSCA-NH2; thioether N-14) | 260 nM |
| Cc1cccc(C[C@@H]2NC(=O)[C@H](CC(=O)O)NC(=O)[C@H](Cc3ccncc3)NC(=O)[C@H](Cc3ccc(OCC(=O)O)cc3)NC(=O)CSC[C@@H](C(=O)N[C@@H](C)C(N)=O)NC(=O)[C@H]([C@@H](C)O)NC(=O)[C@H](C(C)C)NC(=O)[C@H](CC3CCCCC3)NC(=O)[C@H](CCN)NC(=O)[C@H](Cc3ccccc3)N(C)C(=O)[C@H](CCCN)NC(=O)[C@H](CCC(=O)O)NC(=O)[C@H](Cc3ccc(-c4ccccc4)cc3)NC(=O)C(C(C)C)NC2=O)c1 (stereo partly shown) [Example 1446] ({CH2CO}-Y(Carboxymethyl)[4Pal]D[Phe(3-Me)][ξV][Bip]E[Orn][NMeF][Dab][Cha]VTCA-NH2; thioether N-14) | 20 nM |
| CC(C)C[C@@H]1NC(=O)[C@H](Cc2c[nH]c3ccccc23)NC(=O)[C@H](CC(=O)O)NC(=O)[C@H](Cc2ccc(O)cc2)NC(=O)[C@H](Cc2ccccc2)NC(=O)CSC[C@@H](C(=O)N[C@@H](C)C(N)=O)NC(=O)[C@H]([C@@H](C)O)NC(=O)[C@H](C(C)C)NC(=O)[C@H](CC(C)C)NC(=O)[C@H](CCN)NC(=O)[C@H]2CCCN2C(=O)[C@H](C)N(C)C(=O)[C@H](C(C)C)NC(=O)[C@H](Cc2ccc(-c3ccccc3)cc2)NC1=O [Example 1398] ({CH2CO}-FYDWL[Bip]V[NMeA][dP][Dab]LVTCA-NH2; thioether N-14) | 50 nM |
